These results are taken from article PMC5896746 (ACS chemical biology, 2017).

Where a chain is given by its changes, count along the chain named. Some results are limits rather than exact numbers.

One assay addresses T1, hPKG II 41–418 wt (Homo sapiens, UniProt Q13237).
T1 sequence (Q13237 41-418): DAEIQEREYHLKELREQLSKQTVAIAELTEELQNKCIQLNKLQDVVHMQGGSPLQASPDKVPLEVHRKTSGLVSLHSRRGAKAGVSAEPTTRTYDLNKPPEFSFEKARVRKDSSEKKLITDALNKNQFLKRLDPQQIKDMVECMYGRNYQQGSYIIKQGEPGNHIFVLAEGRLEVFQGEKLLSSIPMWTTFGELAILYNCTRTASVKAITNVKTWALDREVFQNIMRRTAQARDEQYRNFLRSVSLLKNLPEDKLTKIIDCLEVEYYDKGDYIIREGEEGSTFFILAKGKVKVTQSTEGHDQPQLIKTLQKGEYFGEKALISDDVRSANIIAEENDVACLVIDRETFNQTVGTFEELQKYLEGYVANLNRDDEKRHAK
Put plainly: Competitive SPR. Type of assay: binding. The note with it: for Isotype selectivity in binding, PKG II: selective in binding PKG II.

The target of the next assay is T2, hPKG II 41–418 G356E (Homo sapiens, UniProt Q13237, G356E).
T2 sequence (Q13237 41-418 G356E): T1 sequence (Q13237 41-418) with G316E
Put plainly: Competitive SPR, PKG II R domain with site B disabled. Type of assay: binding.

A further assay addresses T3, hPKG II 1–762 (Homo sapiens, UniProt Q13237).
T3 sequence (Q13237 1-762): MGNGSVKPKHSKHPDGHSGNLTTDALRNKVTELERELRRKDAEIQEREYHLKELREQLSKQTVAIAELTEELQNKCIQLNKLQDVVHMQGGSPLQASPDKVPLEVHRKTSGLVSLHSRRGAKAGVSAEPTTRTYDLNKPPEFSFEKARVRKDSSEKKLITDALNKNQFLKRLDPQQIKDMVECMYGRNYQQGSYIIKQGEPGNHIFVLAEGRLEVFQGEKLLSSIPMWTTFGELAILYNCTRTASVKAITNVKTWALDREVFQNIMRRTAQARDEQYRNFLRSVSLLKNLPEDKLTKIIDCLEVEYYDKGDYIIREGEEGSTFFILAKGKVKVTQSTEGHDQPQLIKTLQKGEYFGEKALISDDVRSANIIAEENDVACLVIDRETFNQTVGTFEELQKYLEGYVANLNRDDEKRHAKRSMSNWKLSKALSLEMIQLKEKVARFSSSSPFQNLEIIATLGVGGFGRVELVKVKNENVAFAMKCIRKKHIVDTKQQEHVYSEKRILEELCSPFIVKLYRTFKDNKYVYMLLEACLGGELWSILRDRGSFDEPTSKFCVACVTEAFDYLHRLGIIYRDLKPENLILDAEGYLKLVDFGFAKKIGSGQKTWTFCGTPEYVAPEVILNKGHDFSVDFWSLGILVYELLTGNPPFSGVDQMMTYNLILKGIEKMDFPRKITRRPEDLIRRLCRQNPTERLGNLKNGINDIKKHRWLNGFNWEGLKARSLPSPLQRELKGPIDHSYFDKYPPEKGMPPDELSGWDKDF
Put plainly: Microfluidic mobility-shift kinase activation assay, PKG II. The note with it: for Activation constant Ka ± SEM: full-length PKG II, microfluidic mobility shift assay; for Isotype selectivity in activating, PKG II: selective in activating PKG II.

In the next assay the target is T4, hPKG Iβ 5–676 (Homo sapiens, UniProt Q13976).
T4 sequence (Q13976 5-686 isoform Q13976-2): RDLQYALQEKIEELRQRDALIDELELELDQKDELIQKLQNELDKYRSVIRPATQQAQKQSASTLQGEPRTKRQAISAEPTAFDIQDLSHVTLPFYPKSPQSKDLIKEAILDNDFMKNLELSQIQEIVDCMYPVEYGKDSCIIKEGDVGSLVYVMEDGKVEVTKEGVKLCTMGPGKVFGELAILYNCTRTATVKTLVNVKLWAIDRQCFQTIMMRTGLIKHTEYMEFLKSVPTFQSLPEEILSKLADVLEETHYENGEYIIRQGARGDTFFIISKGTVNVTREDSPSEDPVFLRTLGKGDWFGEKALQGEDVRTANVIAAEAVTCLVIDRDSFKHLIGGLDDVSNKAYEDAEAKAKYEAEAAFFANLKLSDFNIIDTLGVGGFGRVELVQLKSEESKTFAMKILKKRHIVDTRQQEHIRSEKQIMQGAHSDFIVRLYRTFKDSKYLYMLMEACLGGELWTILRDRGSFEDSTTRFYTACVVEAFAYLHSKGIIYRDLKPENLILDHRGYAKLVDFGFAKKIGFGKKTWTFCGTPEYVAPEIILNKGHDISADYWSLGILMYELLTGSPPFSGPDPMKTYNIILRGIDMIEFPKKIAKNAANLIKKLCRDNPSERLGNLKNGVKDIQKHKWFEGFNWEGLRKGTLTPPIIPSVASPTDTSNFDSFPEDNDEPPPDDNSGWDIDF
Put plainly: Microfluidic mobility-shift kinase activation assay, PKG Iβ. The note with it: for Activation constant Ka ± SEM: full-length PKG Iβ, microfluidic mobility shift assay.

The next assay relates to PKG Iβ. The note with it: read-out: Activation constant (previous activation data); cited from earlier work.
The next assay addresses T5, hPKG Iβ 1–351 G182E (Homo sapiens, UniProt Q13976, G167E).
T5 sequence (Q13976 1-351 isoform Q13976-2 G182E): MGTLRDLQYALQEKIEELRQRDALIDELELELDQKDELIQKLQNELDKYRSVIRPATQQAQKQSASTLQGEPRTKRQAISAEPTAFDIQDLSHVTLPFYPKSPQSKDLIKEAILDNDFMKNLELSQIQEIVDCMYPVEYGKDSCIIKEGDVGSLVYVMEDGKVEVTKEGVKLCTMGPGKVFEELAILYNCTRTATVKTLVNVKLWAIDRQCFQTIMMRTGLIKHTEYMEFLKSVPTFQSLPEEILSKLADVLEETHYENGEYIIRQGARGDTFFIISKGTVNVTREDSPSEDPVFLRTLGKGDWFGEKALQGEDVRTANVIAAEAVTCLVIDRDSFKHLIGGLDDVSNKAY
The assay is described as follows: Competitive SPR, PKG Iβ R domain with site A disabled. Type of assay: binding. The note with it: own affinity data.

The next assay has as its system PKG I. The note with it: PKG I preincubated with [3H]cGMP, cited from earlier work.
Another assay concerns the target T6, hPKG Iβ 1–351 wt (Homo sapiens, UniProt Q13976).
T6 sequence (Q13976 1-351 isoform Q13976-2): T5 sequence (Q13976 1-351 isoform Q13976-2 G182E) with E182G
The assay is described as follows: Competitive SPR.

The next assay addresses T7, hPKG Iβ 1–351 G306E (Homo sapiens, UniProt Q13976, G291E).
T7 sequence (Q13976 1-351 isoform Q13976-2 G306E): T5 sequence (Q13976 1-351 isoform Q13976-2 G182E) with E182G, G306E
Put plainly: Competitive SPR, PKG Iβ R domain with site B disabled. The assay is classed as binding. The note with it: own affinity data.

The next assay relates to PKG II. The note with it: read-out: Activation constant (previous activation data); cited from earlier work.

As for `Nc1nc2c(nc(Sc3ccc(Cl)cc3)n2[C@@H]2O[C@@H]3COP(=O)(O)O[C@H]3[C@H]2O)c(=O)[nH]1` [8-pCPT-cGMP, 8-(4-chlorophenylthio)guanosine-3′-5′-cyclic monophosphate], the “Isotype selectivity in binding, PKG II” value at hPKG II 41–418 wt was 40–50 fold. Moreover, the “Selectivity for PKG II (EC50 compared to cGMP)” value on hPKG II 41–418 wt (wild type R domain, SPR) is listed as ~ 19 fold. Moreover, the “Reduction of EC50 at A site of PKG II compared to cGMP” value at hPKG II 41–418 G356E is given as over 50 fold. Besides, the “Activation constant Ka ± SEM” value at hPKG II 1–762 is listed as 22 ± 3 nM (4); at hPKG Iβ 5–676, 249 ± 17 nM (3). In addition, the “Isotype selectivity in activating, PKG II” value at hPKG II 1–762 is listed as ~ 10 fold. Moreover, the EC50 in the assay on PKG Iβ is 440 nM.
As to `O=c1c2ncn([C@@H]3O[C@@H]4COP(=O)(O)O[C@H]4[C@H]3O)c2nc2[nH]c(-c3ccccc3)cn12` [PET-cGMP, β-phenyl-1,N2-ethenoguanosine 3′,5′-monophosphate], the “Binding to B site, fold stronger than cGMP” value on hPKG Iβ 1–351 G182E is given as “over 50 fold”; in the assay on PKG I (rapidly exchanging site) it was 10 fold. Besides, the “Activation constant Ka ± SEM” value at hPKG II 1–762 was 225 ± 13 nM (3); on hPKG Iβ 5–676, 18 ± 2 nM (3). The “Isotype selectivity in activating, PKG Iβ” value on hPKG Iβ 5–676 (selective in activating PKG Iβ) is ~ 10 fold. In addition, the “Isotype selectivity in binding, PKG Iβ” value on hPKG Iβ 1–351 wt (selective in binding PKG Iβ) is given as 40–50 fold. On hPKG Iβ 1–351 wt (wild type R domain, SPR), the “Selectivity for PKG Iβ (EC50 compared to cGMP)” value is ~ 40 fold. Also, the EC50 with PKG Iβ is 20 nM.
Consider `Nc1nc2c(nc(Br)n2[C@@H]2O[C@@H]3COP(=O)(O)O[C@H]3[C@H]2O)c(=O)[nH]1` [8-Br-cGMP, 8-bromoguanosine 3′,5′-cyclic monophosphate], for which the “Isotype selectivity in binding, PKG II” value on hPKG II 41–418 wt is ~ 10 fold. For the same compound, the “Isotype selectivity in activating, PKG II” value at hPKG II 1–762 was ~ 4 fold. Also, at hPKG Iβ 1–351 G306E, the “Binding to A site, fold stronger than cGMP” value is reported as “over 2 fold”. Moreover, on hPKG Iβ 5–676, the “Activation constant Ka ± SEM” value is 206 ± 13 nM (3). Besides, the “Binding to slowly exchanging site (A site), fold stronger than cGMP” value with PKG I is on record as 3.4 fold. The EC50 with PKG II was 25 nM.
Turning to `Nc1nc2c(ncn2[C@@H]2O[C@@H]3COP(=O)(O)O[C@H]3[C@H]2O)c(=O)[nH]1` [cGMP, Cyclic GMP], the figures for the EC50 in the assay with PKG II and in the assay on PKG Iβ were 40 to 360 nM and 250 nM, respectively.
